Assay results reported in patent US20250215029A1 (Recludix Pharma, Inc., priority 2022, published 2025).
Like-named read-outs stand apart in the source and are kept apart here.

Experiments:
[1] = molecular target: T1, pY705-STAT3 in PBMC (Homo sapiens, UniProt P40763); assay: MSD-pSTAT-PBMC Assay (pSTAT3, IL-6 stimulated); format: cell-based; conditions: PBMC, compound 3 hrs, then 10 ng/mL IL-6 for 10 min
T1 construct: Cryopreserved Peripheral Blood Mononuclear Cells (PBMC) are from AllCells; host or cells: cryopreserved PBMC
T1 sequence (P40763 whole entry): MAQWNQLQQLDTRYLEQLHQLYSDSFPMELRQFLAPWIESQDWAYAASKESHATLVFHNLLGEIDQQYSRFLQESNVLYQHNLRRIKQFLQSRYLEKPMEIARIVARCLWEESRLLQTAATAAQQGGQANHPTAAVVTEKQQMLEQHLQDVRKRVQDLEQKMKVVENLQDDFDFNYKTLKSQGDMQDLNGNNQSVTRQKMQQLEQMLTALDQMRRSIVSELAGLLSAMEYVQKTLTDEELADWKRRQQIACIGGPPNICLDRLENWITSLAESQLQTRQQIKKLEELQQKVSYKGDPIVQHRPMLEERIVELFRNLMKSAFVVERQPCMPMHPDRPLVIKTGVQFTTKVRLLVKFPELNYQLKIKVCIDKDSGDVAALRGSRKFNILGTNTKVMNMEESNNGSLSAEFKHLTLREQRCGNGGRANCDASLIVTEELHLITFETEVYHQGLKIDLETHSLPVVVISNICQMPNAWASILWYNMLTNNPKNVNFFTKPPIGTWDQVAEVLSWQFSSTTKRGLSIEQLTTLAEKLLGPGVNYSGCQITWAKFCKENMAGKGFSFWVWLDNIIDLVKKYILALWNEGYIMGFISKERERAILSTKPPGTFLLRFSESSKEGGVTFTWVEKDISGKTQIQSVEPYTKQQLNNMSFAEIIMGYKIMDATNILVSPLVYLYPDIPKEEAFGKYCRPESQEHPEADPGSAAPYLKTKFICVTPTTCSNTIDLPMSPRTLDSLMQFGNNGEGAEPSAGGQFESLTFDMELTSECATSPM
How it was run: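 Inhibition of cytokine-induced STAT phosphorylation was measured in recovered human PBMC after 3 hrs compound exposure and a 10 min IL-4 (1 ng/mL) or IL-6 (10 ng/mL) challenge. MSD detection of pY641-STAT6 or pY705-STAT3 yielded IC50 values.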

[2] = molecular target: T2, pY641-STAT6 in PBMC (Homo sapiens, UniProt P42226); assay: MSD-pSTAT-PBMC Assay (pSTAT6, IL-4 stimulated); format: cell-based; conditions: compound 3 hrs, then 1 ng/mL IL-4 for 10 min
T2 construct: Cryopreserved Peripheral Blood Mononuclear Cells (PBMC) are from AllCells; host or cells: cryopreserved PBMC
T2 sequence (P42226 1-847): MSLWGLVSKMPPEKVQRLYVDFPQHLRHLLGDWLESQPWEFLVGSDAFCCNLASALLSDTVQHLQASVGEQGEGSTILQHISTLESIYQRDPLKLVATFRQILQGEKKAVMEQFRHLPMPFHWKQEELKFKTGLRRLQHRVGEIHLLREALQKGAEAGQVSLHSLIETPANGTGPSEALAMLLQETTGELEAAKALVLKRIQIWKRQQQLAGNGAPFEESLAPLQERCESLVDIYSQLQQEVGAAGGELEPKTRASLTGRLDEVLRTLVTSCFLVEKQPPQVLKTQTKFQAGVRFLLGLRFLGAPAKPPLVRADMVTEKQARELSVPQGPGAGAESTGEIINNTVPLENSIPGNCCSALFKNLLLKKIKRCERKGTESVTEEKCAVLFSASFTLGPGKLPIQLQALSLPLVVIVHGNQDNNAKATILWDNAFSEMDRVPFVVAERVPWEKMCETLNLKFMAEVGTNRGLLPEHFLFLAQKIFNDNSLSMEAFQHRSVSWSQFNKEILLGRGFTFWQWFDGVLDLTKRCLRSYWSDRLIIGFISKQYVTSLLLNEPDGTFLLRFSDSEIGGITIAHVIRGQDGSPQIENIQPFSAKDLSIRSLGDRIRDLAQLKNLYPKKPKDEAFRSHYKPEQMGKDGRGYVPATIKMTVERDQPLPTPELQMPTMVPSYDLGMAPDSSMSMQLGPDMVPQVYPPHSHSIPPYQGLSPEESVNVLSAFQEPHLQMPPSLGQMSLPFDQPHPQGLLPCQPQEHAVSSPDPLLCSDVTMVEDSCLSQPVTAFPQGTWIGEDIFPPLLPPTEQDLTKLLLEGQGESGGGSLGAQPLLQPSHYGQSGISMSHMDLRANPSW
How it was run: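 PBMC (human, cryopreserved, overnight recovery) + cpd 3 hrs → IL-6 10 ng/mL (STAT3) or IL-4 1 ng/mL (STAT6) ×10 min → lysis with protease/phosphatase inhibitors → MSD capture/phospho detection. IC50, variable slope, DMSO-normalized.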

[3] = PBMC, Table 1114, read-out: pSTAT6

Row | Compound | IC50 ([1]; Table 1114, read-out: pSTAT3) [nM] | IC50 [2, 3] [nM] | IC50 ([1]; Table 115, read-out: STAT3) [nM] | also measured
1 | CCCOC(=O)[C@H](C)NP(=O)(Cc1ccc2sc(C(=O)N[C@H]3CCC[C@H]4CC[C@@H](C(=O)N5CCC(c6cccnc6)C5)N4C3=O)cc2c1)Oc1ccccc1 (stereo partly drawn) [Compound 252, propyl (((2-(((3S,6S,9aS)-5-oxo-3-(3-(pyridin-3-yl)pyrrolidine-1-carbonyl)octahydro-1H-pyrrolo[1,2-a]azepin-6-yl)carbamoyl)benzo [b]thiophen-5-yl)methyl)(phenoxy)phosphoryl)-L-alaninate] |  |  | 1000 to 3000 | IC50 ([2]; STAT6, PBMC, Table 115): 100 to 1000 nM
2 | CC(C)CC(=O)SCCOP(=O)(Oc1cccc(C#N)c1)C(F)(F)c1ccc2sc(C(=O)N[C@H]3CCC[C@H]4CC[C@@H](C(=O)N5CC(c6cccnc6)C5)N4C3=O)cc2c1 (stereo partly drawn) [Compound 1008, S-(2-(((3-cyanophenoxy) (difluoro(2-(((3S,6S,9aS)-5-oxo-3-(3-(pyridin-3-yl)azetidine-1-carbonyl)octahydro-1H-pyrrolo[1,2-a]azepin-6-yl)carbamoyl)benzo [b]thiophen-5-yl)methyl)phosphoryl)oxy)ethyl) 3-methylbutanethioate] |  |  | 100 to 1000 | IC50 ([2]; STAT6, PBMC, Table 115): > 3000 nM
3 | N#C[C@H]1CN(C(=O)[C@@H]2CC[C@@H]3CCCC[C@H](NC(=O)c4ccc5ccc(C(F)(F)P(=O)(OCCSC(=O)CC6COC6)OCCSC(=O)CC6COC6)cc5c4)C(=O)N32)C[C@@H]1c1cc[nH]c(=O)c1 (single isomer, unassigned) [Compound 408] |  |  | > 3000 | IC50 ([2]; PBMC, Table 115, read-out: STAT6): 100 to 1000 nM
4 | CC(C)(CO)C(=O)SCCOP(=O)(Oc1ccccc1)C(F)(F)c1ccc2sc(C(=O)N[C@H]3CCCC[C@H]4CC[C@@H](C(=O)N5C[C@@H](C#N)[C@H](c6cc[nH]c(=O)c6)C5)N4C3=O)cc2c1 (single isomer, unassigned) [Compound 1091] |  |  | > 3000 | IC50 ([2]; STAT6, PBMC, Table 115): > 3000 nM
5 | CC(C)(C)C(=O)OCOP(=O)(OCOC(=O)C(C)(C)C)C(F)(F)c1ccc2sc(C(=O)N[C@H]3CCCC[C@H]4CC[C@@H](C(=O)N5CC(C#N)C(c6cc[nH]c(=O)c6)C5)N4C3=O)cc2c1 (mixture of isomers) [Compound 147, ((((2-(((3S,6S,10aS)-3-(rel-trans)-3-cyano-4-(2-oxo-1,2-dihydro-pyridin-4-yl)pyrrolidine-1-carbonyl)-5-oxodecahydro-pyrrolo[1,2-a]azocin-6-yl)carbamoyl)benzo[b]thiophen-5-yl)difluoromethyl)phosphoryl)bis (oxy))bis (methylene) bis(2,2-dimethylpropanoate)] | 100 to 1000 | < 100 |  | 
6 | CC(C)(CO)C(=O)SCCOP(=O)(Oc1ccccc1)C(F)(F)c1ccc2sc(C(=O)N[C@H]3CCC[C@H]4CC[C@@H](C(=O)N5CC(c6cccnc6)C5)N4C3=O)cc2c1 (stereo partly drawn) [Compound 201, S-(2-(((difluoro(2-(((3S,6S,9aS)-5-oxo-3-(3-(pyridin-3-yl)azetidine-1-carbonyl)octahydro-1H-pyrrolo[1,2-a]azepin-6-yl)carbamoyl)benzo[b]thiophen-5-yl)methyl) (phenoxy)phosphoryl)oxy)ethyl) 3-hydroxy-2,2-dimethyl-propanethioate] | 100 to 1000 |  |  | IC50 ([2]; pSTAT6, PBMC, Table 1114): > 3000 nM
7 | S-(2-((((2- (((3S,6S,10aS)-3- ((3S,4R or 3R,4S)-3- cyano-4- phenylpyrrolidine-1- carbonyl)-5- oxodecahydro- pyrrolo[1,2-a] azocin-6- yl)carbamoyl) benzo[b]thiophen- 5-yl)difluoromethyl) (2-(pivaloylthio) ethoxy)phosphoryl) oxy)ethyl) butanethioate [Compound 165] | 1000 to 3000 | 100 to 1000 |  | 
8 | CCCC(=O)SCCOP(=O)(OCCSC(=O)CCC)C(F)(F)c1ccc2sc(C(=O)N[C@H]3CCCC[C@H]4CC[C@@H](C(=O)N5C[C@@H](C#N)[C@H](c6ccccc6)C5)N4C3=O)cc2c1 (relative stereo) [Compound 126, S,S′-(((((2-(((3S,6S,10aS)-3-(rel-trans)-3-cyano-4-phenylpyrrolidine-1-carbonyl)-5-oxodecahydro-pyrrolo[1,2-a]azocin-6-yl)carbamoyl)benzo[b]thiophen-5-yl)difluoromethyl)phosphoryl)bis(oxy)) bis(ethane-2,1-diyl)) dibutanethioate] | 100 to 1000 | < 100 |  | 

Further lines, with some results ahead:

Row | IC50 ([1]; Table 1114, read-out: pSTAT3) [nM] | IC50 [2, 3] [nM] | Compound | IC50 ([1]; Table 115, read-out: STAT3) [nM] | also measured
9 | > 3000 | > 3000 | CC(C)(C(=O)SCCOP(=O)(OCCSC(=O)C(C)(C)C(F)(F)F)C(F)(F)c1ccc2sc(C(=O)N[C@H]3CCCC[C@H]4CC[C@@H](C(=O)N5C[C@@H](C#N)[C@H](c6ccccc6)C5)N4C3=O)cc2c1)C(F)(F)F (single isomer, unassigned) [Compound 159, S,S′-(((((2-(((3S,6S,10aS)-3-((3S,4R or 3R,4S)-3-cyano-4-phenylpyrrolidine-1-carbonyl)-5-oxodecahydro-pyrrolo[1,2-a]azocin-6-yl)carbamoyl)benzo[b]thiophen-5-yl)difluoromethyl)phosphoryl)bis(oxy))bis(ethane-2,1-diyl)) bis(3,3,3-trifluoro-2,2-dimethylpropane-thioate)] |  | 
10 | 1000 to 3000 | > 3000 | CC(C)(CO)C(=O)SCCOP(=O)(OCCSC(=O)C(C)(C)CO)C(F)(F)c1ccc2sc(C(=O)N[C@H]3CCCC[C@H]4CC[C@@H](C(=O)N5C[C@@H](C#N)[C@H](c6ccccc6)C5)N4C3=O)cc2c1 (single isomer, unassigned) [Compound 200, S,S′-(((((2-(((3S,6S,10a S)-3-((3S,4R or 3R,4S)-3-cyano-4-phenylpyrrolidine-1-carbonyl)-5-oxodecahydro-pyrrolo [1,2-a]azocin-6-yl)carbamoyl)benzo[b]thiophen-5-yl)difluoromethyl)phosphoryl)bis(oxy))bis(ethane-2,1-diyl)) bis(3-hydroxy-2,2-dimethyl-propanethioate)] |  | 
11 | 100 to 1000 | 100 to 1000 | CC(C)OC(=O)OCOP(=O)(OCOC(=O)OC(C)C)[C@H](F)c1ccc2sc(C(=O)N[C@H]3CCCC[C@H]4CC[C@@H](C(=O)N5C[C@H](c6cc[nH]c(=O)c6)[C@@H](C#N)C5)N4C3=O)cc2c1 (single isomer, unassigned) [Compound 164] |  | 
12 | 100 to 1000 | 100 to 1000 | CC(C)(C)C(=O)OCOP(=O)(OCOC(=O)C(C)(C)C)C(F)(F)c1ccc2sc(C(=O)N[C@@]3(C)CCCCC4CC[C@@H](C(=O)N5C[C@H](c6ccccc6)[C@@H](C#N)C5)N4C3=O)cc2c1 (relative stereo) [Compound 151, ((((2-(((3S,6S,10aS)-3-(rel-trans)-3-cyano-4-phenylpyrrolidine-1-carbonyl)-6-methyl-5-oxodecahydro-pyrrolo[1,2-a]azocin-6-yl)carbamoyl)benzo[b]thiophen-5-yl)difluoromethyl)phosphoryl)bis (oxy))bis (methylene) bis(2,2-dimethylpropanoate)] |  | 
